Test results taken from patent US12043597B2, “Crystalline polymorphs of Rivoceranib and Rivoceranib mesylate” (ASSIA CHEMICAL INDUSTRIES LTD., priority 2018, dated 2024).

Test: Solid-state (polymorphic) stability of the crystalline form under humidity, temperature and mass pressure stress
Format: physicochemical
Source text: As used herein, the term “stable” in relation to crystalline Rivoceranib and Rivoceranib mesylate refers to less than 20%, less than 10%, less than 5%, less than 2%, less than 1%, or less than 0.5% conversion of crystalline Rivoceranib or Rivoceranib mesylate to any other solid state form of Rivoceranib or Rivoceranib mesylate, respectively.
As discussed above, depending on which other solid state it is compared with, Form RT2 of Rivoceranib according to the present disclosure may have advantageous properties as described above. Particularly, crystalline Form RT2 of Rivoceranib mesylate of the present disclosure is stable, for example upon exposure to high humidity or high temperature or high mass pressure conditions, such as 60° C./100% RH for up to 7 days or 80% RH at room temperature for 2 days, or under 100° C. for 60 minutes or under mass pressure of 2 ton for 1 minute.

CS(=O)(=O)O.N#CC1(c2ccc(NC(=O)c3cccnc3NCc3ccncc3)cc2)CCCC1 [Form RT2, N-[4-(1-Cyanocyclopentyl)phenyl]-2-(pyridin-4-ylmethylamino)pyridine-3-carboxamide methanesulfonate]
stable: stability upon exposure to high humidity and temperature (60° C./100% RH for up to 7 days) | stability upon exposure to high humidity (80% RH at room temperature for 2 days) | stability upon exposure to high temperature (100° C. for 60 minutes) | stability under high mass pressure (mass pressure of 2 ton for 1 minute)
